US20250073340A1, “SPIROCYCLIC MDM2 MODULATOR AND USES THEREOF” (Newave Pharmaceutical Inc., priority 2021, published 2025)

target: MDM2 (Homo sapiens (Human), UniProt Q00987); assay: In vitro MDM2 HTRF assay (inhibition of p53-MDM2 interaction); assay type: binding; conditions: GST-MDM2 / biotinylated p53 peptide
Sequence (Q00987 whole entry): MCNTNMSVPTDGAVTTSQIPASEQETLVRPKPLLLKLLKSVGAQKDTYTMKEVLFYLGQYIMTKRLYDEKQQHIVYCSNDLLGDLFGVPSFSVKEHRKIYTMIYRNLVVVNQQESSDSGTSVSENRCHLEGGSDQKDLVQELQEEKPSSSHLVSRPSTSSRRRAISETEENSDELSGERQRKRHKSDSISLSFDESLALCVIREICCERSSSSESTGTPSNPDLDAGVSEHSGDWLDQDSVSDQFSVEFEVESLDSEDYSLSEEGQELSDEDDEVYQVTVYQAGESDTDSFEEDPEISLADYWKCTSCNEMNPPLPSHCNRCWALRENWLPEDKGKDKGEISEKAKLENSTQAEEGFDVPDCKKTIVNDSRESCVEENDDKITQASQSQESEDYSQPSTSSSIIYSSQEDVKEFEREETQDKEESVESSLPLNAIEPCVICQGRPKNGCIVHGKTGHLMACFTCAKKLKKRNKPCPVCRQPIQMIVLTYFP

| IC50 | Structure (SMILES) |
| --- | --- |
| 276 nM | COc1cc(C(N)=O)ccc1NC(=O)[C@H]1N[C@H](CC(C)(C)C)[C@]2(CNc3cc(Cl)ncc32)[C@@H]1c1cccc(Cl)c1F [Example 10, (2R,3R,4R,5S)—N-(4-carbamoyl-2-methoxyphenyl)-6′-chloro-4-(3-chloro-2-fluorophenyl)-2-(2,2-dimethylpropyl)-1′,2′-dihydrospiro[pyrrolidine-3,3′-pyrrolo[3,2-c]pyridine]-5-carboxamide] |
| 103 nM | COc1cc(C(N)=O)ccc1NC(=O)[C@H]1N[C@H](CC(C)(C)C)[C@]2(CNc3cc(C(F)(F)F)ncc32)[C@@H]1c1cccc(Cl)c1F [Example 12, (2R,3R,4R,5S)—N-(4-carbamoyl-2-methoxyphenyl)-4-(3-chloro-2-fluorophenyl)-2-(2,2-dimethylpropyl)-6′-(trifluoromethyl)-1′,2′-dihydrospiro[pyrrolidine-3,3′-pyrrolo[3,2-c]pyridine]-5-carboxamide] |
| 2.03 nM | COc1cc(C(=O)NCCCC#Cc2cccc3c2CN(C2CCC(=O)N(C)C2=O)C3=O)ccc1NC(=O)[C@@H]1N[C@@H](CC(C)(C)C)[C@@]2(CNc3cc(Cl)ccc32)[C@H]1c1cccc(Cl)c1F (stereo partly drawn) [Example 19, (2′S,3S,4′S,5′R)-6-chloro-4′-(3-chloro-2-fluorophenyl)-2′-(2,2-dimethylpropyl)-N-[2-methoxy-4-({5-[2-(1-methyl-2,6-dioxopiperidin-3-yl)-1-oxo-3H-isoindol-4-yl]pent-4-yn-1-yl}carbamoyl)phenyl]-1,2-dihydrospiro[indole-3,3′-pyrrolidine]-5′-carboxamide] |
| 10.8 nM | COc1cc(N2CCC[C@H](C#Cc3cccc4c3CN([C@H]3CCC(=O)NC3=O)C4=O)C2)ccc1NC(=O)[C@@H]1N[C@@H](CC(C)(C)C)[C@@]2(CNc3cc(Cl)ccc32)[C@H]1c1cccc(Cl)c1F [Example 28, (2′S,3S,4′S,5′R)-6-chloro-4′-(3-chloro-2-fluorophenyl)-N-(4-((R)-3-((2-((S)-2,6-dioxopiperidin-3-yl)-1-oxoisoindolin-4-yl)ethynyl)piperidin-1-yl)-2-methoxyphenyl)-2′-neopentylspiro[indoline-3,3′-pyrrolidine]-5′-carboxamide] |

tested on: BCL-2-dependent acute lymphoblastic leukemia (ALL) cell line RS4;11 overexpressing Bcl-2 G101V; assay: cells; assay type: cell-based; conditions: Homo sapiens, RS4-11, 72 h, read-out: RS4;11-G101V IC50
Method: Biological Example 2: In vitro Anti-proliferation Assay in BCL-2-dependent acute lymphoblastic leukemia (ALL) cell line RS4; 11 overexpressing Bcl-2 G101V
Cell antiproliferation was assayed by PerkinElmer ATPlite™ Luminescence Assay System. Briefly, the various test cancer cell lines were plated at a density of about 1×10^4 cells per well in Costar 96-well plates, and were incubated with different concentrations of compounds for about 72 hours in medium supplemented with 5% FBS or 10% normal human serum (NHS). One lyophilized substrate solution vial was then reconstituted by adding 5 mL of substrate buffer solution, and was agitated gently until the solution was homogeneous. About 50 μL of mammalian cell lysis solution was added to 100 μL of cell suspension per well of a microplate, and the plate was shaken for about five minutes in an orbital shaker at −700 rpm. This procedure was used to lyse the cells and to stabilize the ATP. Next, 50 μL substrate solution was added to the wells and microplate was shaken for five minutes in an orbital shaker at −700 rpm. Finally, the luminescence was measured by a PerkinElmer TopCount® Microplate Scintillation Counter. Such assays, carried out with a range of doses of test compounds, allowed the determination of the cellular anti-antiproliferative IC50 of the compounds of the present invention.

| Structure (SMILES) | IC50 |
| --- | --- |
| COc1cc(C(N)=O)ccc1NC(=O)[C@@H]1N[C@@H](CC(C)(C)C)[C@@]2(CNc3cc(Cl)ccc32)[C@H]1c1cccc(Cl)c1F [Example 1, (2′S,3S,4′S,5′R)—N-(4-carbamoyl-2-methoxyphenyl)-6-chloro-4′-(3-chloro-2-fluorophenyl)-2′-neopentylspiro[indoline-3,3′-pyrrolidine]-5′-carboxamide] | 33 nM |

same assay, conditions: Homo sapiens, RS4-11; about 72 hours, ATPlite luminescence; read-out: RS4;11-G101V IC50

| Structure (SMILES) | IC50 |
| --- | --- |
| COc1cc(C(=O)N[C@H]2CCCC[C@H]2CC#Cc2cccc3c2CN(C2CCC(=O)NC2=O)C3=O)ccc1NC(=O)[C@@H]1N[C@@H](CC(C)(C)C)[C@@]2(CNc3cc(Cl)ccc32)[C@H]1c1cccc(Cl)c1F (stereo partly drawn) [Example 40, (2′S,3S,4′S,5′R)-6-chloro-4′-(3-chloro-2-fluorophenyl)-2′-(2,2-dimethylpropyl)-N-(4-{[(1S,2S)-2-{3-[2-(2,6-dioxopiperidin-3-yl)-1-oxo-3H-isoindol-4-yl]prop-2-yn-1-yl}cyclohexyl]carbamoyl}-2-methoxyphenyl)-1,2-dihydrospiro[indole-3,3′-pyrrolidine]-5′-carboxamide] | 11.4 nM |
| COc1cc(C(=O)N[C@@H]2CCCC[C@@H]2CC#Cc2cccc3c2CN(C2CCC(=O)NC2=O)C3=O)ccc1NC(=O)[C@@H]1N[C@@H](CC(C)(C)C)[C@@]2(CNc3cc(Cl)ccc32)[C@H]1c1cccc(Cl)c1F (stereo partly drawn) [Example 41, (2′S,3S,4′S,5′R)-6-chloro-4′-(3-chloro-2-fluorophenyl)-2′-(2,2-dimethylpropyl)-N-(4-{[(1R,2R)-2-{3-[2-(2,6-dioxopiperidin-3-yl)-1-oxo-3H-isoindol-4-yl]prop-2-yn-1-yl}cyclohexyl]carbamoyl}-2-methoxyphenyl)-1,2-dihydrospiro[indole-3,3′-pyrrolidine]-5′-carboxamide] | 54.3 nM |
| COc1cc(C(=O)N2CCCC[C@@H]2C#CC#Cc2cccc3c2CN(C2CCC(=O)NC2=O)C3=O)ccc1NC(=O)[C@@H]1N[C@@H](CC(C)(C)C)[C@@]2(CNc3cc(Cl)ccc32)[C@H]1c1cccc(Cl)c1F (stereo partly drawn) [Example 46, (2′S,3S,4′S,5′R)-6-chloro-4′-(3-chloro-2-fluorophenyl)-2′-(2,2-dimethylpropyl)-N-{4-[(2R)-2-{4-[2-(2,6-dioxopiperidin-3-yl)-1-oxo-3H-isoindol-4-yl]buta-1,3-diyn-1-yl}piperidine-1-carbonyl]-2-methoxyphenyl}-1,2-dihydrospiro[indole-3,3′-pyrrolidine]-5′-carboxamide] | > 1000 nM |
| COc1cc(C(=O)N2CCCC[C@H]2C#CC#Cc2cccc3c2CN(C2CCC(=O)NC2=O)C3=O)ccc1NC(=O)[C@@H]1N[C@@H](CC(C)(C)C)[C@@]2(CNc3cc(Cl)ccc32)[C@H]1c1cccc(Cl)c1F (stereo partly drawn) [Example 47, (2′S,3S,4′S,5′R)-6-chloro-4′-(3-chloro-2-fluorophenyl)-2′-(2,2-dimethylpropyl)-N-{4-[(2S)-2-{4-[2-(2,6-dioxopiperidin-3-yl)-1-oxo-3H-isoindol-4-yl]buta-1,3-diyn-1-yl}piperidine-1-carbonyl]-2-methoxyphenyl}-1,2-dihydrospiro[indole-3,3′-pyrrolidine]-5′-carboxamide] | > 1000 nM |
| COc1cc(C(=O)N2CCC[C@@]3(C[C@H]3C#Cc3cccc4c3CN([C@H]3CCC(=O)NC3=O)C4=O)C2)ccc1NC(=O)[C@@H]1N[C@@H](CC(C)(C)C)[C@@]2(CNc3cc(Cl)ccc32)[C@H]1c1cccc(Cl)c1F [Example 61, (2′S,3S,4′S,5′R)-6-chloro-4′-(3-chloro-2-fluorophenyl)-2′-(2,2-dimethylpropyl)-N-{4-[(1S,3S)-1-(2-{2-[(3S)-2,6-dioxopiperidin-3-yl]-1-oxo-3H-isoindol-4-yl}ethynyl)-5-azaspiro[2.5]octane-5-carbonyl]-2-methoxyphenyl}-1,2-dihydrospiro[indole-3,3′-pyrrolidine]-5′-carboxamide] | 5.75 nM |
| COc1cc(C(=O)N2CCC[C@@]3(C[C@@H]3C#Cc3cccc4c3CN([C@H]3CCC(=O)NC3=O)C4=O)C2)ccc1NC(=O)[C@@H]1N[C@@H](CC(C)(C)C)[C@@]2(CNc3cc(Cl)ccc32)[C@H]1c1cccc(Cl)c1F [Example 62, (2′S,3S,4′S,5′R)-6-chloro-4′-(3-chloro-2-fluorophenyl)-2′-(2,2-dimethylpropyl)-N-{4-[(1R,3S)-1-(2-{2-[(3S)-2,6-dioxopiperidin-3-yl]-1-oxo-3H-isoindol-4-yl}ethynyl)-5-azaspiro[2.5]octane-5-carbonyl]-2-methoxyphenyl}-1,2-dihydrospiro[indole-3,3′-pyrrolidine]-5′-carboxamide] | 40.2 nM |
| COc1cc(C(=O)N2CCC[C@]3(C[C@H]3C#Cc3cccc4c3CN([C@H]3CCC(=O)NC3=O)C4=O)C2)ccc1NC(=O)[C@@H]1N[C@@H](CC(C)(C)C)[C@@]2(CNc3cc(Cl)ccc32)[C@H]1c1cccc(Cl)c1F [Example 63, (2′S,3S,4′S,5′R)-6-chloro-4′-(3-chloro-2-fluorophenyl)-2′-(2,2-dimethylpropyl)-N-{4-[(1S,3R)-1-(2-{2-[(3S)-2,6-dioxopiperidin-3-yl]-1-oxo-3H-isoindol-4-yl}ethynyl)-5-azaspiro[2.5]octane-5-carbonyl]-2-methoxyphenyl}-1,2-dihydrospiro[indole-3,3′-pyrrolidine]-5′-carboxamide] | 41.6 nM |
| COc1cc(C(=O)N2CCC[C@]3(C[C@@H]3C#Cc3cccc4c3CN([C@H]3CCC(=O)NC3=O)C4=O)C2)ccc1NC(=O)[C@@H]1N[C@@H](CC(C)(C)C)[C@@]2(CNc3cc(Cl)ccc32)[C@H]1c1cccc(Cl)c1F [Example 64, (2′S,3S,4′S,5′R)-6-chloro-4′-(3-chloro-2-fluorophenyl)-2′-(2,2-dimethylpropyl)-N-{4-[(1R,3R)-1-(2-{2-[(3S)-2,6-dioxopiperidin-3-yl]-1-oxo-3H-isoindol-4-yl}ethynyl)-5-azaspiro[2.5]octane-5-carbonyl]-2-methoxyphenyl}-1,2-dihydrospiro[indole-3,3′-pyrrolidine]-5′-carboxamide] | 188 nM |

Second part, the compound after the results:

| IC50 | Structure (SMILES) |
| --- | --- |
| 127 nM | COc1cc(C(N)=O)ccc1NC(=O)[C@@]1(C)N[C@H](CC(C)(C)C)[C@]2(CNc3cc(Cl)ccc32)[C@@H]1c1cccc(Cl)c1F [Example 8, (2′R,3R,4′R,5′S)—N-(4-carbamoyl-2-methoxyphenyl)-6-chloro-4′-(3-chloro-2-fluorophenyl)-2′-(2,2-dimethylpropyl)-5′-methyl-1,2-dihydrospiro[indole-3,3′-pyrrolidine]-5′-carboxamide] |
| 11.2 nM | COc1cc(C(=O)N2CC(C#Cc3cccc4c3CN(C3CCC(=O)NC3=O)C4=O)C2)ccc1NC(=O)[C@@H]1N[C@@H](CC(C)(C)C)[C@@]2(CNc3cc(Cl)ccc32)[C@H]1c1cccc(Cl)c1F (stereo partly drawn) [Example 55, (2′S,3S,4′S,5′R)-6-chloro-4′-(3-chloro-2-fluorophenyl)-2′-(2,2-dimethylpropyl)-N-[4-(3-{2-[2-(2,6-dioxopiperidin-3-yl)-1-oxo-3H-isoindol-4-yl]ethynyl}azetidine-1-carbonyl)-2-methoxyphenyl]-1,2-dihydrospiro[indole-3,3′-pyrrolidine]-5′-carboxamide] |
| 110 nM | COc1cc(C(=O)O)ccc1NC(=O)[C@@H]1N[C@@H](CC(C)(C)C)[C@](C#N)(c2ccc(Cl)cc2F)[C@H]1c1cccc(Cl)c1F [RG7388, reference compound] |
